# According to ChEMBL document CHEMBL1201862, “PubChem BioAssay data set” (2004):
# Calls of active or inactive are those of the source.
# Legend:
# [1] = molecular target: Intestinal-type alkaline phosphatase (Mus musculus, UniProt P24822); assay: PubChem AID 488874; assay type: functional
# [2] = molecular target: T1, Mannose-6-phosphate isomerase (Homo sapiens, UniProt P34949); assay: phosphomannose isomerase inhibition – biochemical, fluorescence intensity, confirmation (AID 1535)
# T1 sequence (P34949 whole entry): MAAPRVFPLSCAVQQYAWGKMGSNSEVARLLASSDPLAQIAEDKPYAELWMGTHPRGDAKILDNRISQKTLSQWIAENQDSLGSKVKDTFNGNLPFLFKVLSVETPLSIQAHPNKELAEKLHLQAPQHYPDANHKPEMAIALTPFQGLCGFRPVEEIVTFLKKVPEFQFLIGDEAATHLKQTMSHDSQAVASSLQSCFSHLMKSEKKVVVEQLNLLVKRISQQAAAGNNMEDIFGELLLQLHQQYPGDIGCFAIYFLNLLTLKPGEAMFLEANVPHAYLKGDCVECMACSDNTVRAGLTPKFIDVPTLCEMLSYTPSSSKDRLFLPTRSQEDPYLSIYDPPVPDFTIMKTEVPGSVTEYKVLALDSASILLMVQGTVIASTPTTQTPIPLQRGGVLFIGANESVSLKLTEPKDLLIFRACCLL
# [3] = molecular target: T2, Endoribonuclease toxin MazF (Escherichia coli K-12, UniProt P0AE70); assay: activation of MazEF endoribonuclease cleavage – biochemical, fluorescence, single-stranded RNA substrate, uHTS hits, dose response (AID 588481); assay type: functional
# T2 sequence (P0AE70 whole entry): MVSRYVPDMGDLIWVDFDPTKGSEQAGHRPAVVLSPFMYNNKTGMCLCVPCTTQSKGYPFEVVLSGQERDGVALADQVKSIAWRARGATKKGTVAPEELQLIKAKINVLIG
# [4] = molecular target: T1, Mannose-6-phosphate isomerase; assay: Confirmation of compounds inhibiting phosphomannose isomerase (PMI) via a fluorescence intensity assay using a high concentration of mannose 6-phosphate. [Related pubchem assays (depositor defined):AID1209, AID1220, AID1545, AID1553, AID1620]
# [5] = molecular target: Heat shock protein HSP 90-alpha (Homo sapiens, UniProt P07900); assay type: functional, organism-based
# [6] = system: CHO; assay: CHO cell viability loss, potency – luminescence, cytotoxicity control for TLR9-MyD88 binding inhibitor project, dose response (AID 588339); assay type: functional, cell-based, hamster; settings: Cricetulus griseus;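 further: CHO cells stably coexpressing TLR9 and MyD88 fusions from primary screen; compound exposure lasted 48 hours before viability readout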
# [7] = molecular target: T2, Endoribonuclease toxin MazF; assay: substrate-only fluorescence increase artefacts – biochemical, single-stranded RNase substrate, counter-screen for MazEF activator project, dose response (AID 588502); assay type: functional
# [8] = microbe, parasite or virus in culture; assay type: functional; settings: Mycobacterium tuberculosis
# [9] = molecular target: T3, Intestinal-type alkaline phosphatase (Homo sapiens, UniProt P09923); assay: activation of human intestinal alkaline phosphatase – biochemical, luminescent, uHTS hits, set 2, dose response (AID 488817); assay type: functional;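 further: potency of activators that raise enzyme activity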
# [10] = molecular target: Alkaline phosphatase, placental type (Homo sapiens, UniProt P05187); assay: human placental alkaline phosphatase inhibition – biochemical, luminescence, confirmation (AID 1512); assay type: functional
# [11] = molecular target: T3, Intestinal-type alkaline phosphatase; assay: human intestinal alkaline phosphatase activators, dose response, biochemical, luminescence, uHTS hits (AID 463120); assay type: functional
# [12] = molecular target: T4, Tyrosine-protein phosphatase non-receptor type 7 (Homo sapiens, UniProt P35236); assay: SAR analysis of chemical inhibitors of HePTP using a Fluorescent assay - Set 2. [Related pubchem assays (depositor defined):AID1059, AID1077, AID1661, AID2085, AID521]; assay type: functional
# T4 sequence (P35236 whole entry): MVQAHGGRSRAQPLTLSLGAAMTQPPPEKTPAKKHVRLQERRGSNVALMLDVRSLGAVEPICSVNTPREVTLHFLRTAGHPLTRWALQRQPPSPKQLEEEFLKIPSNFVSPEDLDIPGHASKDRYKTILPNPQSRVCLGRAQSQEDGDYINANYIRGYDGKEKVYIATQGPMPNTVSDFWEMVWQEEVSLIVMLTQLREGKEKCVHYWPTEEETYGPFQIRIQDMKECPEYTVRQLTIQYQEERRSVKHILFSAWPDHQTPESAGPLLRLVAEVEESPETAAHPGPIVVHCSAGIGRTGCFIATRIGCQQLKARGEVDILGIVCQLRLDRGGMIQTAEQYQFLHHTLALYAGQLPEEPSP
# [13] = molecular target: T4, Tyrosine-protein phosphatase non-receptor type 7; assay: redox-active compounds inhibiting HePTP phosphatase – biochemical, fluorescence, mechanism study (AID 2068); assay type: functional
# [14] = molecular target: T5, Dual specificity protein phosphatase 3 (Homo sapiens, UniProt P51452); assay: SAR VHR1 absorbance Assay for In Vitro dose response studies. [Related pubchem assays (depositor defined):AID1654, AID1661, AID1878, AID1992, AID2004]
# [15] = molecular target: T5, Dual specificity protein phosphatase 3; assay: SAR VHR1 Fluorescent Assay for In Vitro dose response studies. [Related pubchem assays (depositor defined):AID1654, AID1661, AID1878, AID1992, AID2004, AID2070, AID2085]; assay type: functional
# [16] = molecular target: T6, Dual specificity protein phosphatase 6 (Rattus norvegicus, UniProt Q64346); assay type: functional
# T6 sequence (Q64346 whole entry): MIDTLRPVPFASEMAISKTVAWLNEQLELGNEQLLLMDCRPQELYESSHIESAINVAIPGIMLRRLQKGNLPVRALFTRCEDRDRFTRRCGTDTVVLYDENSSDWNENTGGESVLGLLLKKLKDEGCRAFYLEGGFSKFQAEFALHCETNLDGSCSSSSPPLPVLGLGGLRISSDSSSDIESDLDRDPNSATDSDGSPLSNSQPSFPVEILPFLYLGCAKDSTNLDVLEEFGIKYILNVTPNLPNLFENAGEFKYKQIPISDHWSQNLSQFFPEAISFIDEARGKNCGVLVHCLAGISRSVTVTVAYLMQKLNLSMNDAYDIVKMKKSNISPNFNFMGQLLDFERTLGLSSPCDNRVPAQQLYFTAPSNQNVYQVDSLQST
# [17] = molecular target: T4, Tyrosine-protein phosphatase non-receptor type 7; assay: inhibition of hematopoietic tyrosine phosphatase HePTP – biochemical, set 2, SAR follow-up (AID 449736); assay type: functional
# [18] = molecular target: T5, Dual specificity protein phosphatase 3; assay: SAR VHR1 Fluorescent Assay for In Vitro dose response studies Set 2. [Related pubchem assays (depositor defined):AID1654, AID1661, AID1878]; assay type: functional
# [19] = molecular target: T6, Dual specificity protein phosphatase 6; assay: SAR analysis of inhibitors of MKP-3 - Set 2. [Related pubchem assays (depositor defined):AID1055, AID1661, AID425, AID553, AID566]; assay type: functional
# [20] = molecular target: Troponin, cardiac muscle (Homo sapiens, UniProt P19429+P45379+P63316); assay: Fluorescence-based biochemical high throughput dose response assay for activators of the calcium sensitivity of cardiac Regulated Thin Filaments (RTF). [Related pubchem assays (depositor defined):AID493008, AID493018, AID504382, AID504383]; assay type: protein-complex assay
# [21] = molecular target: G-protein coupled receptor 55 (Homo sapiens, UniProt Q9Y2T6); assay: SAR analysis of selective Agonists of GPR55 using an Image-Based Assay - Set 2. [Related pubchem assays (depositor defined):AID1961, AID1965]; assay type: functional
# [22] = molecular target: T7, Cannabinoid receptor 1 (Homo sapiens, UniProt P21554); assay: SAR analysis of agonists of the Cannabinoid Receptor 1 using an Image-Based Assay - Set 3. [Related pubchem assays (depositor defined):AID1961, AID1965]; assay type: functional
# [23] = molecular target: T8, Cannabinoid receptor 2 (Homo sapiens, UniProt P34972); assay: SAR analysis of agonists of the Cannabinoid Receptor 2 using an Image-Based Assay - Set 2. [Related pubchem assays (depositor defined):AID1961, AID1965]; assay type: functional
# [24] = molecular target: T8, Cannabinoid receptor 2; assay: SAR analysis of antagonists of the Cannabinoid Receptor 2 using an Image-Based Assay - Set 2. [Related pubchem assays (depositor defined):AID1961, AID1965]; assay type: functional
# [25] = molecular target: T9, G-protein coupled receptor 35 (Homo sapiens, UniProt Q9HC97); assay: SAR analysis of Antagonists of the GPR35 Receptor using an Image-Based Assay - Set 4. [Related pubchem assays (depositor defined):[…]]; assay type: functional
# [26] = molecular target: T7, Cannabinoid receptor 1; assay: SAR analysis of antagonists of the Cannabinoid Receptor 1 using an Image-Based Assay - Set 3. [Related pubchem assays (depositor defined):AID1961, AID1965]; assay type: functional
# [27] = molecular target: T9, G-protein coupled receptor 35; assay: SAR analysis of Agonists of the GPR35 Receptor using an Image-Based Assay - Set 3. [Related pubchem assays (depositor defined):AID1961, AID1965]; assay type: functional
# [28] = molecular target: Kappa-type opioid receptor (Homo sapiens, UniProt P41145); assay: SAR analysis of small molecule agonists of the kappa opioid receptor via a luminescent beta-arrestin assay - Set 3. [Related pubchem assays (depositor defined):AID1777, AID1785, AID1786, AID1966, AID2133, AID2136, AID2284, AID2500]; assay type: functional
# [29] = viability of uninfected HEp-2 cells – cell-based, HTS, cytotoxicity control for RSV inhibitor project, dose response (AID 2410); assay type: functional; settings: human respiratory syncytial virus
# [30] = molecular target: T10, Bcl-2-related protein A1 (Mus musculus, UniProt Q07440); assay type: functional;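 further: confirmatory dose–response counterscreen on Bfl-1, used to check hits from a UBC13 polyubiquitin inhibitor campaign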
# T10 sequence (Q07440 whole entry): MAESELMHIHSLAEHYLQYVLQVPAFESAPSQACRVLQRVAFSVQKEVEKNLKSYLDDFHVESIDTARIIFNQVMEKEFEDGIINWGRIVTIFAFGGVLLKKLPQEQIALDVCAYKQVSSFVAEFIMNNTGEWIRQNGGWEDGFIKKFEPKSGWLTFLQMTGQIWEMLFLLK
# [31] = molecular target: T11, Ubiquitin-conjugating enzyme E2 N (Homo sapiens, UniProt P61088); assay type: functional
# T11 sequence (P61088 whole entry): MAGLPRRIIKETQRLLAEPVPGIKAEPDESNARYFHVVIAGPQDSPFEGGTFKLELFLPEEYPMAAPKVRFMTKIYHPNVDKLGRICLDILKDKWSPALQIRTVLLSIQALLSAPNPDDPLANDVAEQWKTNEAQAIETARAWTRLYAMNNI
# [32] = molecular target: T11, Ubiquitin-conjugating enzyme E2 N; assay type: functional; remark: listed apart in the source
# [33] = molecular target: T12, SUMO-activating enzyme (Homo sapiens, UniProt Q9UBT2); assay: blockers of SAE1/SAE2–UBC9 SUMO transfer – biochemical, HTRF, uHTS, primary screen (AID 2006); assay type: protein-complex assay
# [34] = molecular target: T13, Voltage-gated N-type calcium channel alpha-1B subunit/Amyloid beta A4 precursor protein-binding family A member 1 (Homo sapiens, UniProt Q00975+Q02410); assay type: protein assay
# [35] = molecular target: T12, SUMO-activating enzyme; assay: blockers of UBC9-mediated SUMO conjugation – biochemical, AlphaScreen, SUMOylation inhibitor project, confirmation (AID 2018); assay type: functional
# [36] = molecular target: T13, Voltage-gated N-type calcium channel alpha-1B subunit/Amyloid beta A4 precursor protein-binding family A member 1; assay type: protein assay; remark: listed apart in the source
# [37] = molecular target: Large T antigen (Simian virus 40, UniProt P03070); assay: A confirmatory biochemical assay using the ADP-Hunter methodology, purified TAg, and ATP to quantify activity of synthesized compounds that inhibit the ATPase activity of Tag (3). [Related pubchem assays (depositor defined):AID1903, AID1909, AID2102, AID2501, AID2615, AID2775, AID435001, AID449729]; set-up: species or system Betapolyomavirus macacae
# [38] = antiviral efficacy against SV40, host toxicity – BSC cells, set 3, confirmation (AID 485276); assay type: functional, cell-based
# T5 sequence (P51452 whole entry): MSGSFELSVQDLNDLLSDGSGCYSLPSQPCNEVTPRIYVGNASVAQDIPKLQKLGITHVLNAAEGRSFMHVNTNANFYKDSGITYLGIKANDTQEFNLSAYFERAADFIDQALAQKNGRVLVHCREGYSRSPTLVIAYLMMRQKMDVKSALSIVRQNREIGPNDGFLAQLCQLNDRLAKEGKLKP
# T3 sequence (P09923 whole entry): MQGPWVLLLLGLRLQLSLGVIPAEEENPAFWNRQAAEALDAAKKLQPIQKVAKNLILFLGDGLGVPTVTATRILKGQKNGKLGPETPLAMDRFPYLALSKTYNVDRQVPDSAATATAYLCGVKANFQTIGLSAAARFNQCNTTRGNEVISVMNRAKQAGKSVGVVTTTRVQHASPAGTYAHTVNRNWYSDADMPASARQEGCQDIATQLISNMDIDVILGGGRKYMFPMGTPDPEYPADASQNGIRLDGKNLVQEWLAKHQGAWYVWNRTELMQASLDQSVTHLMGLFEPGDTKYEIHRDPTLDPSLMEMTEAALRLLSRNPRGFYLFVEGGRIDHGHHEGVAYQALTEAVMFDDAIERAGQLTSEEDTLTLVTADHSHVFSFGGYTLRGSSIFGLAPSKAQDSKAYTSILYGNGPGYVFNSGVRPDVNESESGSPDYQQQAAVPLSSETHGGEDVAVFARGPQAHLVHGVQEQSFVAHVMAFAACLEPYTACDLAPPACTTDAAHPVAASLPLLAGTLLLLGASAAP
# Sequence of Alkaline phosphatase, placental type (P05187 whole entry): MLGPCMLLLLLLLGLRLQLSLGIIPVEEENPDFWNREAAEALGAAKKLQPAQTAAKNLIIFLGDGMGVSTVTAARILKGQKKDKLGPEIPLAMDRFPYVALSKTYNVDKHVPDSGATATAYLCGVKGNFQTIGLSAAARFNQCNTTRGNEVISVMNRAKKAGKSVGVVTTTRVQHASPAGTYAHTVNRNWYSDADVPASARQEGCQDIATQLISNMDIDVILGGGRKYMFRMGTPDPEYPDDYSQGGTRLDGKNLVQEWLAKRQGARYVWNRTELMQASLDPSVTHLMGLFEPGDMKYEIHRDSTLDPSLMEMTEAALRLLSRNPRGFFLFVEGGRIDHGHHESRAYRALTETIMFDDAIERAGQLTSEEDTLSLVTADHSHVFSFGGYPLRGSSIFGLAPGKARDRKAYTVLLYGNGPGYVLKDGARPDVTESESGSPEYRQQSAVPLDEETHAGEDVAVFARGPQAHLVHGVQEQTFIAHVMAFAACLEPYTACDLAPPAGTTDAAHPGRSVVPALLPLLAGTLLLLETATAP
# T13 sequence (Q00975 whole entry): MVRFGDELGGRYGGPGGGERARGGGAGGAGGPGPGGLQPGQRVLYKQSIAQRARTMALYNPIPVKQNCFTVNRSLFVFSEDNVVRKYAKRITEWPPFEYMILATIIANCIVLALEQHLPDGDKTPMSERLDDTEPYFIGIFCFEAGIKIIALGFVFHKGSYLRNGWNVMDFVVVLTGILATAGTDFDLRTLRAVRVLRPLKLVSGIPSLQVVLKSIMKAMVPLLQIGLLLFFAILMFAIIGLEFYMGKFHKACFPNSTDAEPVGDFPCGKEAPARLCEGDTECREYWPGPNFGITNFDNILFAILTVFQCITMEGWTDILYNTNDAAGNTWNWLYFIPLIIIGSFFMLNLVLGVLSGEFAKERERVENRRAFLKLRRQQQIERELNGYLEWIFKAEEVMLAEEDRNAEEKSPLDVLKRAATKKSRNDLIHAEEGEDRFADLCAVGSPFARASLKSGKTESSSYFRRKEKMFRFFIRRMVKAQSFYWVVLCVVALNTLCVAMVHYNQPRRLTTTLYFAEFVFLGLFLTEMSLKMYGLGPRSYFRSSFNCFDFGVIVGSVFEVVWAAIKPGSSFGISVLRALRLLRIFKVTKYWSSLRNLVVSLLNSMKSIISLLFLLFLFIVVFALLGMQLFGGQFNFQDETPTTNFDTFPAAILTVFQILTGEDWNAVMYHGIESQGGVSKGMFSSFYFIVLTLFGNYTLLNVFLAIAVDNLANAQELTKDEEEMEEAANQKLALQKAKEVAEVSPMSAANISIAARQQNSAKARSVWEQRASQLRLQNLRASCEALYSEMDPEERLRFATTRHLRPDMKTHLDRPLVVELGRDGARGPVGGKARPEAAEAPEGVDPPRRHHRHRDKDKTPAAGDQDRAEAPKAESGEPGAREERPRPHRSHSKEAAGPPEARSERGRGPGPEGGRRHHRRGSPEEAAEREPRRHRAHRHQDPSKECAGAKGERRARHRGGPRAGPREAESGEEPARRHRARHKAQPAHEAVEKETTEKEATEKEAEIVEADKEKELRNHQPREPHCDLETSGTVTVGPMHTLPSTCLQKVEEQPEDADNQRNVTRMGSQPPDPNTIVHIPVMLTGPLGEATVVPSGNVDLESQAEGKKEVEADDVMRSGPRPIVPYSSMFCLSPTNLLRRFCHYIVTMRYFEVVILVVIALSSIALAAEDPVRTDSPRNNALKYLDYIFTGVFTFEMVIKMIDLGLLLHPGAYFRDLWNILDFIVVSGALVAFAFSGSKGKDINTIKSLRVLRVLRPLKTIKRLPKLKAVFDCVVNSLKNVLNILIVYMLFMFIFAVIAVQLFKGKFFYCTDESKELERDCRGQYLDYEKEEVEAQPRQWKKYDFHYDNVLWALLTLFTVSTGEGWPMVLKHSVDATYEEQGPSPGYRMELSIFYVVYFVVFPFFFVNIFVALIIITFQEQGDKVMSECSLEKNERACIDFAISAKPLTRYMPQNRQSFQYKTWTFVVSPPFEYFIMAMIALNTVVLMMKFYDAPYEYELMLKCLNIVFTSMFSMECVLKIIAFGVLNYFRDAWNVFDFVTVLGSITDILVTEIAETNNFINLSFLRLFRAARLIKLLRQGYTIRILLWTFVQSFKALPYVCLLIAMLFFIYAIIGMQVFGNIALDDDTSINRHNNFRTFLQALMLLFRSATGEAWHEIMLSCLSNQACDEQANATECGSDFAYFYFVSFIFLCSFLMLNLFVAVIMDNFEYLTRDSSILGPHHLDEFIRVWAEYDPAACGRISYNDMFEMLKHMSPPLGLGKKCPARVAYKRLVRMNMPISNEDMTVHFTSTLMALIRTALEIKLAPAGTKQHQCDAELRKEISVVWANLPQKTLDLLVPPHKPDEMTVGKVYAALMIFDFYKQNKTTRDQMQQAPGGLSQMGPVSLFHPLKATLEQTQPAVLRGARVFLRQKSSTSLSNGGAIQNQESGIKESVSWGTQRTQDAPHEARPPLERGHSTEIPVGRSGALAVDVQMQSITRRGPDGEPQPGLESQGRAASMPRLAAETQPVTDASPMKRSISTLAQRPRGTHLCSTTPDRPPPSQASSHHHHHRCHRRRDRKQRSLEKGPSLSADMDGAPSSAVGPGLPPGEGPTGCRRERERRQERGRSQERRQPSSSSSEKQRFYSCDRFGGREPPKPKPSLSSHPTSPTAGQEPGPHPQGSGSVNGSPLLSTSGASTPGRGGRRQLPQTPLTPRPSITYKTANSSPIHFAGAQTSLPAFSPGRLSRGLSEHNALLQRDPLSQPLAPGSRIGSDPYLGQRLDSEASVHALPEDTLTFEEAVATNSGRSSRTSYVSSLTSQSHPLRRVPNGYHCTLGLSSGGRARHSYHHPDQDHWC
# T13 sequence (Q02410 whole entry): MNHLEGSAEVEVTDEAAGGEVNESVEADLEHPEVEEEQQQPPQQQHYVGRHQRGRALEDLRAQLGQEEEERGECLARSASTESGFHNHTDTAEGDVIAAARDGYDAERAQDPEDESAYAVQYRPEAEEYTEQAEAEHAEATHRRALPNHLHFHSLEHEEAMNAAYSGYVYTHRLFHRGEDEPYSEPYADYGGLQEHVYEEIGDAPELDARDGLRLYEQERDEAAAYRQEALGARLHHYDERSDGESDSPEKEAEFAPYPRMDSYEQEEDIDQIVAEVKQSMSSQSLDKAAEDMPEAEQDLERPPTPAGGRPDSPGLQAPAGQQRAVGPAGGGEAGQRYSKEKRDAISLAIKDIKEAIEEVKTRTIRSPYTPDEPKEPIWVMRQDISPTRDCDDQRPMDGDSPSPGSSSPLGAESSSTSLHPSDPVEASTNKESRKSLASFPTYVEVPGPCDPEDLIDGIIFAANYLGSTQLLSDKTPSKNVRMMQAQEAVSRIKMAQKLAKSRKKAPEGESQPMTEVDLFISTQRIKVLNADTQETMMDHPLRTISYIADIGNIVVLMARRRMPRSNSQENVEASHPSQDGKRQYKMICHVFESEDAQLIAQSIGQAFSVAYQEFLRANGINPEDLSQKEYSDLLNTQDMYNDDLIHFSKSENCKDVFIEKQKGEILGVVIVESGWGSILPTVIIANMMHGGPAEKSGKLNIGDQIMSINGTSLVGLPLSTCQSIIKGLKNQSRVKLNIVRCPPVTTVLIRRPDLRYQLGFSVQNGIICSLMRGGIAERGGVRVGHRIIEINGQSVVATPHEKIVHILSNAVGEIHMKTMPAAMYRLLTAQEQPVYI
# T8 sequence (P34972 whole entry): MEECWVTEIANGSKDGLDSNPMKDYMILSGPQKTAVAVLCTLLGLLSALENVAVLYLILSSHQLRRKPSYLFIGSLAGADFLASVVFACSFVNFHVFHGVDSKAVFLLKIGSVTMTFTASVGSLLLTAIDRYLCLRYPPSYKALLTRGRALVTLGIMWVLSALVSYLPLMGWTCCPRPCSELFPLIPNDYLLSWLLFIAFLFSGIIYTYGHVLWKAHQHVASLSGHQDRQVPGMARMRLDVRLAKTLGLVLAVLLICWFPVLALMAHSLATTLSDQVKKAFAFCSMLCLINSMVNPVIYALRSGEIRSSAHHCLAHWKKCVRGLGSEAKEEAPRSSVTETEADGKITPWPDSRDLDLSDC
compound,measurement,setting,value
O=C1Nc2ccc(Br)cc2C12NNc1ccccc1O2 (centres undefined),IC50,[1],8.09 µM (active)
same,IC50,[2],> 100 µM (inactive)
same,EC50,[3],> 99 µM (inactive)
same,IC50,[4],> 100 µM (inactive)
same,AC50,[5],3.34 µM (active)
same,IC50,[6],11.3 µM (inactive)
same,EC50,[7],73.1 µM (inactive)
same,CC50,[8],23.8 µM (active)
same,EC50,[9],0.257 µM (active)
same,IC50,[10],> 100 µM (inactive)
same,EC50,[11],10.1 µM (active)
NS(=O)(=O)c1ccc(NC(=S)N2CCN(Cc3ccc4c(c3)OCO4)CC2)cc1,IC50,[12],4.32 µM (active)
same,IC50,[13],0.196 µM (active)
same,IC50,[14],5.41 µM (active)
same,IC50,[15],> 99 µM (inactive)
same,IC50,[16],> 99 µM (inactive)
same,IC50,[17],> 100 µM (inactive)
same,IC50,[18],1.69 µM (active)
same,IC50,[19],> 100 µM (inactive)
Cc1sc(NC(=O)CSc2nnc(C(C)C)n2C)c(C#N)c1C,EC50,[20],> 71.5 µM (inactive)
Cc1cccc(N2CCN(C(=O)c3cccc(S(=O)(=O)N4CCCCC4)c3)CC2)c1C,EC50,[21],> 32 µM (inactive)
same,EC50,[22],> 32 µM (inactive)
same,EC50,[23],> 32 µM (inactive)
same,IC50,[24],> 32 µM (inactive)
same,IC50,[25],> 32 µM (inactive)
same,IC50,[26],> 32 µM (inactive)
same,EC50,[27],> 32 µM (inactive)
CCCCN(Cc1cc2cc(Cl)ccc2[nH]c1=O)C(=O)c1cccs1,EC50,[28],> 20 µM (inactive)
C#CCOCCOCCOCCNc1nc(N2CCN(C(=O)CCCCCCCCCCNC(=O)[C@H]([C@@H](C)CC)n3cc(CCCCN=C(N)N)nn3)CC2)nc(N2CCN(C(=O)CCCCCCCCCCNC(=O)[C@H](CO)n3cc(CCCSC)nn3)CC2)n1,CC50,[29],13.7 µM (active)
same,IC50,[30],3.11 µM (active)
same,IC50,[31],3.7 µM (active)
same,IC50,[32],5.99 µM (active)
same,EC50,[11],40.7 µM (active)
O=C(N/N=C/c1ccc([N+](=O)[O-])o1)c1cn2ccc3ccccc3c2n1,IC50,[33],> 100 µM (inactive)
same,IC50,[34],> 50 µM (inactive)
same,IC50,[35],35.1 µM (active)
same,IC50,[36],> 56.8 µM (not active)
Oc1ccc(Sc2ccc(O)cc2O)c(O)c1,IC50,[37],61.2 µM (active)
same,IC50,[38],146 µM (active)
